# Experiments:
# Details in all cases: binder
# AAK1 = AAK1 (Homo sapiens, UniProt Q2M2I8)
# CAMK1D = CAMK1D (Homo sapiens, UniProt Q8IU85)
# CHEK2 = CHEK2 (Homo sapiens, UniProt O96017)
# CLK2 = CLK2 (Homo sapiens, UniProt P49760)
# CSNK1G1 = CSNK1G1 (Homo sapiens, UniProt Q9HCP0)
# CSNK2A1 = CSNK2A1 (Homo sapiens, UniProt P68400)
# DYRK2 = target: T1, DYRK2 (Homo sapiens, UniProt Q92630)
# T1 sequence (Q92630 1-601): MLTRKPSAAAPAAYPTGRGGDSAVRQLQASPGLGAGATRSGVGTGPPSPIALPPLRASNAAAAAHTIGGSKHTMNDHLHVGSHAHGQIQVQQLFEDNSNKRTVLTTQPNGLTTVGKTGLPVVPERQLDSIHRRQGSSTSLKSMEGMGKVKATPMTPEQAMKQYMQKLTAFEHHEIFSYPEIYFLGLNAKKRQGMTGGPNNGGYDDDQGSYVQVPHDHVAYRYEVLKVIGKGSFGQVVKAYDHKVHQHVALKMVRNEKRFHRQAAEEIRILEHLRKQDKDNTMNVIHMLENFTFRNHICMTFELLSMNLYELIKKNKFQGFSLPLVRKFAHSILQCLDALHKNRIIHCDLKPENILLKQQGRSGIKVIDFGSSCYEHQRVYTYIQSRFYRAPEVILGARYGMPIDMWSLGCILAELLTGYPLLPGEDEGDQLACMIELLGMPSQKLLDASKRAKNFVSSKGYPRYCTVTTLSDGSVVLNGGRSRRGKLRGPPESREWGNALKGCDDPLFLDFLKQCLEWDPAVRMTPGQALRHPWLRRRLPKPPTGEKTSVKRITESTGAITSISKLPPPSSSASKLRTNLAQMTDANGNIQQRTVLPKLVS
# PAK7 = PAK7 (Homo sapiens, UniProt Q9P286)
# PIM3 = PIM3 (Homo sapiens, UniProt Q86V86)
# PLK4 = target: T2, PLK4 (Homo sapiens, UniProt O00444)
# T2 sequence (O00444 1-970): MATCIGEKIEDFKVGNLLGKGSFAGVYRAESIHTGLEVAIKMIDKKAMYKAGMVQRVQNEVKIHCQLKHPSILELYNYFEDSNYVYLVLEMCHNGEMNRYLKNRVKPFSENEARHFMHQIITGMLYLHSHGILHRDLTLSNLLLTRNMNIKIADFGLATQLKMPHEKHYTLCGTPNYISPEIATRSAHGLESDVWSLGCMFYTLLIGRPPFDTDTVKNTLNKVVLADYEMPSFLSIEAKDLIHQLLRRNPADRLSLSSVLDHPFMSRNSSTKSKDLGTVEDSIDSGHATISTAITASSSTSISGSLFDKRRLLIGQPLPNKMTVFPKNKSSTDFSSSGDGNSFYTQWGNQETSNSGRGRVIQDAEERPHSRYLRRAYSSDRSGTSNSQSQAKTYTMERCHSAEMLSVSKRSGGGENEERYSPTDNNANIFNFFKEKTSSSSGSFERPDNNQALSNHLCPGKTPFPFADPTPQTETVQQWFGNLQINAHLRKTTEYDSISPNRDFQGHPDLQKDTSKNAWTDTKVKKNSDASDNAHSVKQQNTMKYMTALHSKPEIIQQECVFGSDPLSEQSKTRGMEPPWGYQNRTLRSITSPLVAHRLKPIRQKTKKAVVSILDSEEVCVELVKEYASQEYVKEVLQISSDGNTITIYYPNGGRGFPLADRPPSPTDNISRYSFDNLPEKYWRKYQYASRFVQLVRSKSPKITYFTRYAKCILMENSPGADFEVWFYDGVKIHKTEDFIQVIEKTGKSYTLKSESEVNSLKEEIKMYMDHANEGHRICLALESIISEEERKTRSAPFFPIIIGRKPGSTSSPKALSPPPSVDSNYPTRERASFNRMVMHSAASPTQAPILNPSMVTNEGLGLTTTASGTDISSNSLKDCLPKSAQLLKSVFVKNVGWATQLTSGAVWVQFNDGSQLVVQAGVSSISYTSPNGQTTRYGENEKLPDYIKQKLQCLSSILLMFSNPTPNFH
# PRKAA1 = PRKAA1 (Homo sapiens, UniProt Q13131)
# SLK = SLK (Homo sapiens, UniProt Q9H2G2)
# SRPK3 = SRPK3 (Homo sapiens, UniProt Q9UPE1)
# STK26 = STK26 (Homo sapiens, UniProt Q9P289)
# STK38L = STK38L (Homo sapiens, UniProt Q9Y2H1)
# VRK2 = VRK2 (Homo sapiens, UniProt Q86Y07)
# Sequence of VRK2 (Q86Y07 whole entry): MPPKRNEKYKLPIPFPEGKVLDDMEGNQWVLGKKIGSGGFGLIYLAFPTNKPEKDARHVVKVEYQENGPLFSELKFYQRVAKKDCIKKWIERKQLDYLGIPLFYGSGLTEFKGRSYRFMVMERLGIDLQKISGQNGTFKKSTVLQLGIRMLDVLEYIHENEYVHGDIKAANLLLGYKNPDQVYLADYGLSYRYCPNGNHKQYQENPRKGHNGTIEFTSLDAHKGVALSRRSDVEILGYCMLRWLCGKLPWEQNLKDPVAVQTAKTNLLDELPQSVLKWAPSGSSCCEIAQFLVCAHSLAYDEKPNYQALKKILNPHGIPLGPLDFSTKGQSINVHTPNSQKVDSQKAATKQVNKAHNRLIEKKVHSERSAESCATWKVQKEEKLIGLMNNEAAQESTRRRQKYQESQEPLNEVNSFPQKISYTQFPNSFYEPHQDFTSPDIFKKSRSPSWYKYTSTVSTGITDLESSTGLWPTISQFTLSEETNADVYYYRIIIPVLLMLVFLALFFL
# Sequence of CLK2 (P49760 whole entry): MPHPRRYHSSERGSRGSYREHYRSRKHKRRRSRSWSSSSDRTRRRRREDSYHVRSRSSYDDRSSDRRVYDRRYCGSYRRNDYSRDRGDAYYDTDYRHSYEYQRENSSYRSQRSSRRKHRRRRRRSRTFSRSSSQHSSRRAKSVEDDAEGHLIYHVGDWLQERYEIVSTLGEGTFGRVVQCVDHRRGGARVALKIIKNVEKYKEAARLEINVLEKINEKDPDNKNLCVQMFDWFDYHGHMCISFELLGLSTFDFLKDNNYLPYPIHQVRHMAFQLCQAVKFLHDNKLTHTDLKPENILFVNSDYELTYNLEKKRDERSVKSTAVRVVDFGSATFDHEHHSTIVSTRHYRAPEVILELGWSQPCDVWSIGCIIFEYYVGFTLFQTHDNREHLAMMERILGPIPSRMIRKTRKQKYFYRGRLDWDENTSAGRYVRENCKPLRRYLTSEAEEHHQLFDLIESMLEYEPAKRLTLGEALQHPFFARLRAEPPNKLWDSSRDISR
# Sequence of CSNK2A1 (P68400 whole entry): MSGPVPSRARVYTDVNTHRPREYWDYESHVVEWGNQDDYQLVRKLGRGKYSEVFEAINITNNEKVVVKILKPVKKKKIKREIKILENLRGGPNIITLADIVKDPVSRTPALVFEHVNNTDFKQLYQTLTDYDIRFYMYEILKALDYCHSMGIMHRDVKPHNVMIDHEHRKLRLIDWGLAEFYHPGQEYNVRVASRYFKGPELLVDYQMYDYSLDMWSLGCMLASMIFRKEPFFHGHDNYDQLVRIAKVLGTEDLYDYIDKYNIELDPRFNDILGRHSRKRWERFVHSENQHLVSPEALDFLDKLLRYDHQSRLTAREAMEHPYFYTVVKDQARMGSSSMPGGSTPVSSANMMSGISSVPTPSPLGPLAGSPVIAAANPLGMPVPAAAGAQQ
# Sequence of CAMK1D (Q8IU85 whole entry): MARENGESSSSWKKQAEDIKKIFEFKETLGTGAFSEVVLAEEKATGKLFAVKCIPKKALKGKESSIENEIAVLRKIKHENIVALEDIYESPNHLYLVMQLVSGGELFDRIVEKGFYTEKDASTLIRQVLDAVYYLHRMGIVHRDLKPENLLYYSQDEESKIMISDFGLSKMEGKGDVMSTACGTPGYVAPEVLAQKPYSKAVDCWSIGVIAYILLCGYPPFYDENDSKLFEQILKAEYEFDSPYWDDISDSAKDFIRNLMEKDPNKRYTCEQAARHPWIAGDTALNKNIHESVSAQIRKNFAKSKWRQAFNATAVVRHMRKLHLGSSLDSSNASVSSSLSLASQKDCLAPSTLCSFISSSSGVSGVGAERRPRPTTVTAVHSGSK
# Sequence of PAK7 (Q9P286 whole entry): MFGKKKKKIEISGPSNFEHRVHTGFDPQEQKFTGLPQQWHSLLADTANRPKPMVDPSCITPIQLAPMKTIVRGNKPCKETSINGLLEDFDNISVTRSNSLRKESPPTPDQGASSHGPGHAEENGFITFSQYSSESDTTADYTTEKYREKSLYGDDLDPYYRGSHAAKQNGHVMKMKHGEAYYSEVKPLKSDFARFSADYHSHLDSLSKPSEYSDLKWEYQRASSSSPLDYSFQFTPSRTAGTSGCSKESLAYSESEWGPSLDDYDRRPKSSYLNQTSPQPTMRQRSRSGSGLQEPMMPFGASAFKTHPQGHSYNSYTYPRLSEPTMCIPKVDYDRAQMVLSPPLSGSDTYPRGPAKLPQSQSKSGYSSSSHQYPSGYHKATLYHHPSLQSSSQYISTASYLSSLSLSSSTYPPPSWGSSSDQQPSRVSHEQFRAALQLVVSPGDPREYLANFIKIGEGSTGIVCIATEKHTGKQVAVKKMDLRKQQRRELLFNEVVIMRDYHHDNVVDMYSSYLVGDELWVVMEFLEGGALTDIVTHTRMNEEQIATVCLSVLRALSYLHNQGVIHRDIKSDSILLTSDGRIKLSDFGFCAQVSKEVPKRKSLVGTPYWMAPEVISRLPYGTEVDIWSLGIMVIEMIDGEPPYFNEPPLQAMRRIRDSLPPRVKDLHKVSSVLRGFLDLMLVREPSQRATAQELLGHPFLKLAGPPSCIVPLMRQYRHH
# Sequence of SLK (Q9H2G2 whole entry): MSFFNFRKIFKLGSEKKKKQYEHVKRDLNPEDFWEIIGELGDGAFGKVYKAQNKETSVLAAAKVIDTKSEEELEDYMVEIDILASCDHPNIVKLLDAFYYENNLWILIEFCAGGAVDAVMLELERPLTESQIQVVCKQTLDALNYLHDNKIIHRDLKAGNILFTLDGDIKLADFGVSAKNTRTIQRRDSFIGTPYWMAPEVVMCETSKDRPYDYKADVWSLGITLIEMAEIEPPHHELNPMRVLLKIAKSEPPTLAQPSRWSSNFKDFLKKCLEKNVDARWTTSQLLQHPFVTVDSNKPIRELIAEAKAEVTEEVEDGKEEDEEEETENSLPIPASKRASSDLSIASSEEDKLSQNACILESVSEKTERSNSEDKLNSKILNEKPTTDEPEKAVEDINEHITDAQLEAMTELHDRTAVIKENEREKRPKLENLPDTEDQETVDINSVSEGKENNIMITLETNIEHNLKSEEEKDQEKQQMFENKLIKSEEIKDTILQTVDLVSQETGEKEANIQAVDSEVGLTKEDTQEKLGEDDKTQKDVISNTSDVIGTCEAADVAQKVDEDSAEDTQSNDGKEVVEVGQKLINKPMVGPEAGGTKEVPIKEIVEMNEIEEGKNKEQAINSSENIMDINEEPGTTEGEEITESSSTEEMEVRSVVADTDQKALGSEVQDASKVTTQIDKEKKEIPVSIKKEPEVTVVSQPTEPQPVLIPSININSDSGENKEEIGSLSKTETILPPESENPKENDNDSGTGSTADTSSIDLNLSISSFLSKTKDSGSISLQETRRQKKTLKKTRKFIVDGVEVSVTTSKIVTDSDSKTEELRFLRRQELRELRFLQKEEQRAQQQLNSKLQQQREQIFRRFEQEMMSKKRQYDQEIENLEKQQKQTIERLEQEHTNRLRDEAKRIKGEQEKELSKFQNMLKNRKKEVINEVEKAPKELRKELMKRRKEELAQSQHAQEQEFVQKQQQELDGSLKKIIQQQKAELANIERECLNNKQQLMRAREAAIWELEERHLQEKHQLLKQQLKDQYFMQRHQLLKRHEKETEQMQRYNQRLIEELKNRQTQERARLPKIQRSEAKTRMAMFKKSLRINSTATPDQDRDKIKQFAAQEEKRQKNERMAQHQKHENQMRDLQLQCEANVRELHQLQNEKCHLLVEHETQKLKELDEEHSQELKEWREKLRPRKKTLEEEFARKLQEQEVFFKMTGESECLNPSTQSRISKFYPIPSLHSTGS
# Sequence of STK26 (Q9P289 whole entry): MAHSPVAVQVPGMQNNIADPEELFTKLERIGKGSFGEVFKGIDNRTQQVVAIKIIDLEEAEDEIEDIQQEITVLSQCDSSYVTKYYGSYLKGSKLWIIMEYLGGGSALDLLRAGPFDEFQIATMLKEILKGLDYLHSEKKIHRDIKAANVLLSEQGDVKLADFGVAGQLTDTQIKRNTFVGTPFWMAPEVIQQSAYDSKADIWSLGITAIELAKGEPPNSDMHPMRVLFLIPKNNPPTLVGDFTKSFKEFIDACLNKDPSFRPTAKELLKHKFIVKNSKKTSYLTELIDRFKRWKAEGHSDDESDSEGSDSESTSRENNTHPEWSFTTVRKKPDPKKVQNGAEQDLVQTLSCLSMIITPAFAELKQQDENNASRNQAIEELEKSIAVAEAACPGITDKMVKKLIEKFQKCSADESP
# Sequence of STK38L (Q9Y2H1 whole entry): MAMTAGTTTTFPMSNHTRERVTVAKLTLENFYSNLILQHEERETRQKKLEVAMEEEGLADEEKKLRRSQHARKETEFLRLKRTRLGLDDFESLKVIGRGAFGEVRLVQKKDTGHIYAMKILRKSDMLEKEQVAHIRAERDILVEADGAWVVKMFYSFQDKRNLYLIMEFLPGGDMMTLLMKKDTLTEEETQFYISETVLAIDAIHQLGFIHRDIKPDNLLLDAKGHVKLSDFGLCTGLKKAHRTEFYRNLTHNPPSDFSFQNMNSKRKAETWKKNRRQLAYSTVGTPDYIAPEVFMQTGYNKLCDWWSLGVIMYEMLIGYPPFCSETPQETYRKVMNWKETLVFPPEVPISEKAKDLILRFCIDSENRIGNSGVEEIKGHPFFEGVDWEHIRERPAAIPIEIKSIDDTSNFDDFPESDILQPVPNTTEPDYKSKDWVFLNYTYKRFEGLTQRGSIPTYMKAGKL
compound,measurement,setting,value
"CC(=O)c1cccc(-c2cnc3ccc(NCC4CC4)nn23)c1 [compound 1, K00135]",ΔTm inhibitor 1,AAK1,6.9 °C
same,ΔTm inhibitor 1,CAMK1D,0.6 °C
same,ΔTm inhibitor 1,CHEK2,0.8 °C
same,ΔTm inhibitor 1,CLK2,5.5 °C
same,ΔTm inhibitor 1,CSNK1G1,1.7 °C
same,ΔTm inhibitor 1,CSNK2A1,3.3 °C
same,ΔTm inhibitor 1,DYRK2,4.1 °C
same,ΔTm inhibitor 1,PAK7,0.4 °C
same,ΔTm inhibitor 1,PIM3,6.8 °C
same,ΔTm inhibitor 1,PLK4,2.6 °C
same,ΔTm inhibitor 1,PRKAA1,1.3 °C
same,ΔTm inhibitor 1,SLK,2.3 °C
same,ΔTm inhibitor 1,SRPK3,0.4 °C
same,ΔTm inhibitor 1,STK26,0.3 °C
same,ΔTm inhibitor 1,STK38L,0.4 °C
same,ΔTm inhibitor 1,VRK2,1.5 °C
"CCN1/C(=C/C(C)=O)Sc2ccc(OC)cc21 [compound 2, TG003]",ΔTm inhibitor 2,AAK1,1.5 °C
same,ΔTm inhibitor 2,CAMK1D,0.0 °C
same,ΔTm inhibitor 2,CHEK2,0.1 °C
same,ΔTm inhibitor 2,CLK2,5.0 °C
same,ΔTm inhibitor 2,CSNK1G1,3.2 °C
same,ΔTm inhibitor 2,CSNK2A1,2.6 °C
same,ΔTm inhibitor 2,DYRK2,7.3 °C
same,ΔTm inhibitor 2,PAK7,-0.1 °C
same,ΔTm inhibitor 2,PIM3,4.9 °C
same,ΔTm inhibitor 2,PLK4,0.2 °C
same,ΔTm inhibitor 2,PRKAA1,-0.3 °C
same,ΔTm inhibitor 2,SLK,-0.5 °C
same,ΔTm inhibitor 2,SRPK3,0.0 °C
same,ΔTm inhibitor 2,STK26,-0.3 °C
same,ΔTm inhibitor 2,STK38L,0.3 °C
same,ΔTm inhibitor 2,VRK2,0.2 °C
"Nc1nccc(-c2ccc3noc(-c4ccc(Cl)cc4)c3c2)n1 [compound 4, K00972]",ΔTm inhibitor 4,AAK1,3.4 °C
same,ΔTm inhibitor 4,CAMK1D,0.2 °C
same,ΔTm inhibitor 4,CHEK2,0.5 °C
same,ΔTm inhibitor 4,CLK2,7.2 °C
same,ΔTm inhibitor 4,CSNK1G1,1.0 °C
same,ΔTm inhibitor 4,CSNK2A1,0.2 °C
same,ΔTm inhibitor 4,DYRK2,8.9 °C
same,ΔTm inhibitor 4,PAK7,0.6 °C
same,ΔTm inhibitor 4,PIM3,5.4 °C
same,ΔTm inhibitor 4,PLK4,0.4 °C
same,ΔTm inhibitor 4,PRKAA1,0.5 °C
same,ΔTm inhibitor 4,SLK,0.5 °C
same,ΔTm inhibitor 4,SRPK3,0.2 °C
same,ΔTm inhibitor 4,STK26,0.1 °C
same,ΔTm inhibitor 4,STK38L,0.9 °C
same,ΔTm inhibitor 4,VRK2,0.0 °C
